Measured values as given in ChEMBL document CHEMBL4813929, “Isolation, Structure Determination, and Total Synthesis of Hoshinoamide C, an Antiparasitic Lipopeptide from the Marine Cyanobacterium Caldora penicillata” (J Nat Prod, 2021).

Assays:
HeLa = assay: Cytotoxicity against human HeLa cells assessed as cell growth inhibition at 10 uM measured after 72 hrs by MTT assay; assay type: cell-based
[1] = test system: Trypanosoma brucei rhodesiense; assay: Antitrypanosomal activity against Trypanosoma brucei rhodesiense IL-1501 assessed as parasite growth inhibition incubated for 69 hrs by AlamarBlue assay; assay type: functional, organism-based; details: IL-1501, 69 h
HL-60 = assay: Cytotoxicity against human HL-60 cells assessed as cell growth inhibition at 10 uM measured after 72 hrs by MTT assay; assay type: cell-based; details: hl-60, 72 h
Plasmodium falciparum = assay: Antiplasmodial activity against asexual Plasmodium falciparum 3D7 infected in human erythrocytes assessed as reduction in parasitemia measured after 72 hrs by LDH assay; assay type: functional, organism-based; details: 3D7, Erythrocyte

IC50 [1] [nM]	IC50 (Plasmodium falciparum) [nM]	Structure (SMILES)	Activity (HeLa)	Activity (HL-60)
2900	960	CC[C@H](C)[C@H](C(=O)N[C@@H](CCC(N)=O)C(=O)N[C@H](C(=O)N(C)[C@H](Cc1ccccc1)C(=O)N1CCC[C@H]1C(=O)OC)C(C)C)N(C)C(=O)[C@H](CC(C)C)NC(=O)CC[C@H](C)CCCCNC(=O)CCCc1ccc(O)cc1	Non-Toxic	Non-Toxic
4400	870	CC[C@H](C)[C@H](C(=O)N[C@@H](CCC(N)=O)C(=O)N[C@H](C(=O)N(C)[C@H](Cc1ccccc1)C(=O)N1CCC[C@H]1C(=O)OC)C(C)C)N(C)C(=O)[C@H](CC(C)C)NC(=O)CC[C@@H](C)CCCCNC(=O)CCCc1ccc(O)cc1	Non-Toxic	Non-Toxic
	0.96	O=C1C(O)=C([C@H]2CC[C@H](c3ccc(Cl)cc3)CC2)C(=O)c2ccccc21 [ATOVAQUONE]		
1		N=C(N)c1ccc(OCCCCCOc2ccc(C(=N)N)cc2)cc1 [PENTAMIDINE]		
